These results are taken from article PMC8322070, “A novel orally active HDAC6 inhibitor T-518 shows a therapeutic potential for Alzheimer’s disease and tauopathy in mice” (Scientific Reports, 2021).

Structures are written as SMILES.

One assay concerns class IIa HDACs. Nature of the assay: HDAC selectivity panel (Reaction Biology Corporation), class IIa. It counts as biochemical. Particulars: heat map Fig. 2A. Here is the method: (§1) Recombinant HDAC6, HDAC7, HDAC1 were obtained from SignalChem Pharmaceutical Inc. (Richmond, BC, Canada), and recombinant human HDAC4 was prepared at Takeda pharmaceutical company. One μL of T-518 diluted with DMSO was added to 75 μL of assay buffer (24 mM Tris–HCl (pH 7.5), 135 mM NaCl, 0.35 mM KCl, 1 mM MgCl2, 0.01% Tween 20, 0.6 mM GSH) in 384 well plates. Two μL of diluted compounds were added to 384 well plates and 2 μL of recombinant HDAC enzymes was added and then centrifuged at 1000 rpm for 10 s. The final concentrations of each HDAC enzyme were as follows, human HDAC1, 170 pM; human HDAC6, […]; human HDAC4, 68 pM; human HDAC7, 13 pM. After incubation for 60 min at room temperature, 4 μL of HDAC-Glo reagent [HDAC-Glo I/II (Promega) for HDAC6 and HDAC1, HDAC-Glo class IIa (Promega) for HDAC4 and HDAC7] was added to start the reaction. After incubation for 20 min at room temperature, the luminescence was measured by Envision plate reader (PerkinElmer, Waltham, MA, USA). For experiments under the condition of 0 min preincubation, 4 μL of HDAC-Glo reagent was added at first to the 384 well plates including diluted compounds. After centrifugation at 1000 rpm for 10 s, 2 μL of HDAC enzyme solution was added. After centrifugation at 1000 rpm for 10 s. and then incubation for 20 min at room temperature, the luminescence was measured by Envision. For determination of inhibitory activity of T-518, the vehicle signal was set as 0% and the signal in the absence of HDAC enzyme was set as 100% inhibition. The inhibitory activity of T-518 was expressed as the value of IC50. The IC50 value and 95% confidence intervals were calculated by XLfit (IDBS, Surrey, UK). The HDAC selectivity panel was conducted by Reaction Biology Corporation (Malvern, PA, USA).

For assay [1], the system named is Histone H3 acetylation in mouse primary neural cultures. Nature of the assay: Histone H3 acetylation in mouse primary neural culture (Western blotting). The class given is cell-based. The conditions noted are these: DIV6 mouse primary neural culture, 3 and 30 μM, 24 h. Here is the method: (§2) T-518, ACY-738, Ricolinostat, and Tubastatin A were synthesized in Takeda. For in vitro cellular experiments, the compounds were solubilized with DMSO and diluted in the culture medium at the indicated concentrations. For in vivo experiments, the compound was reconstituted in 0.5% methylcellulose and administered orally at the indicated doses. After administration, mouse hippocampus was isolated and homogenized in RIPA extraction buffer (50 mM Tris–HCl, 150 mM NaCl, 1% NP-40, 0.5% sodium deoxycholate, and 0.1% SDS, pH 8.0) supplemented with protease and phosphatase inhibitor cocktail (Thermo Fischer, Waltham, MA, USA). The homogenate was centrifuged at 10,000g for 15 min and the supernatant was taken as the RIPA-soluble fraction.
(§3) Primary cortical neurons were prepared from E14 C57BL/6J mouse embryos (CLIEA Japan, Inc., Tokyo, Japan) using papain-containing Neuron Dissociation Solutions (Fujifilm Wako, Tokyo, Japan). Isolated cells were suspended in Neurobasal Medium containing B-27 (Thermo Fisher) and seeded on poly-D-lysine-coated plates (Corning, NY, USA) under 5% CO2 at 37 °C for 6 days in vitro (DIV) prior to evaluation of HDAC6 inhibitors. Cells were treated with HDAC6 inhibitors at the indicated concentrations for 24 h and lysed in RIPA extraction buffer (50 mM Tris–HCl, 150 mM NaCl, 1% NP-40, 0.5% sodium deoxycholate, and 0.1% SDS, pH 8.0) supplemented with protease and phosphatase inhibitor cocktail (Thermo Fisher).
Cell lysate or in vivo protein samples were separated by 10% SDS-PAGE, then electrophoretically transferred to 0.45 μm poly-vinylidene difluoride membranes (Millipore). Membranes were blocked for 1 h in Blocking Reagent (TOYOBO, Osaka, Japan), probed with primary antibodies followed by labeling with HRP-coupled secondary antibodies (Amersham, Piscataway, NJ), and then visualized using chemiluminescence reagent (ECL; Amersham). Images were captured using ImageQuant LAS 4000 (GE healthcare Bio-Sciences, Marlborough, MA, USA). Quantitative densitometric analyses were conducted using ImageQuant TL (GE healthcare Bio-Sciences). The protocol was slightly modified for detection of HDAC6 in cortex. Briefly, cerebral cortex was homogenized in RIPA buffer supplemented with 1 μM microstatin, 1 μM MG115, 40 μM Leupeptin, 100 μM ABSF, and 2 mM sodium orthovanadate, separated by 7.5–15% gradient SDS-PAGE and electrophoretically transferred to 0.45 μm poly-vinylidene difluoride membranes (Millipore). Membranes were blocked for 1 h with ECL Prime Blocking Reagent (Amersham, Piscataway, NJ) prior to immunoblotting, visualization, and densitometry as described above.

Assay [2] concerns tubulin acetylation in mouse primary neural cultures. Nature of the assay: Tubulin acetylation in mouse primary neural culture (ELISA). The class given is cell-based. The conditions noted are these: DIV6 mouse primary neural culture, 0.1–10 μM, 24 h, ELISA. The protocol:
as §2, §3
Acetylated α-tubulin and total tubulin levels were measured by sandwich ELISA. Ninety six-well plates (Microlite2+, Thermo) were coated with α-tubulin capture antibody (1:100) by overnight incubation at 4 °C, washed 4 times with PBS'T, treated with blocking buffer (1% bovine serum albumin in PBS'T) at 37 °C for 2 h, and washed another 4 times with PBS’T. Cell or tissues lysate was added to the wells and plates were incubated at 37 °C for 2 h. Plates were then washed 4 times with PBST, incubated with a detection antibody for acetylated tubulin or total α-tubulin diluted in blocking buffer at 37℃ for 1 h, rewashed 4 more times with PBST, incubated with a mouse secondary antibody conjugated to horseradish peroxidase (HRP) for 30 min, wash 4 times again with PBST, and then incubated with chemiluminescent substrate (SuperSignal).
A general note: ELISA stands for enzyme-linked immunosorbent assay.

The subject of the next assay is class I HDACs. Nature of the assay: HDAC selectivity panel (Reaction Biology Corporation), class I. It counts as biochemical. The conditions noted are these: heat map Fig. 2A. Here is the method:
as §1, with “After centrifugation at 1000 rpm for 10 s, 2 μL of HDAC enzyme solution was added.” left out, “For determination of inhibitory activity of T-518, the vehicle signal was set as 0% and the signal in the absence of HDAC enzyme was set as 100% inhibition.” left out, “The IC50 value and 95% confidence intervals were calculated by XLfit (IDBS, Surrey, UK). The HDAC selectivity panel was conducted by Reaction Biology Corporation (Malvern, PA, USA).” left out

Take `CN1CCc2c(c3ccccc3n2Cc2ccc(C(=O)NO)cc2)C1` [Tubastatin A]: the “inhibition of class IIa HDACs in HDAC panel” value (shortened to “inhibition of class IIa HDACs”) in the assay on class IIa HDACs is “inhibits”. Moreover, in assay [1], the “effect on Histone H3 acetylation” value was “neither T-518 nor Tubastatin A at 3 and 30 μM demonstrates this activity”. Also, in assay [2], the “effect on tubulin acetylation” value was “significantly and concentration-dependently elevates tubulin acetylation”.
As to `O=C(NO)c1cnc(NC2(c3ccccc3)CC2)nc1` [ACY-738], the “inhibition of class IIa HDACs” value in the assay on class IIa HDACs is reported as “slightly inhibit”. Moreover, the “inhibition of class I HDACs in HDAC panel” value in the assay on class I HDACs is listed as “slightly inhibit”. For the same molecule, the “effect on Histone H3 acetylation” value in assay [1] is “increase the acetylation of histone H3”. The “effect on tubulin acetylation” value in assay [2] is “significantly and concentration-dependently elevates tubulin acetylation”.
For `O=C(CCCCCCNC(=O)c1cnc(N(c2ccccc2)c2ccccc2)nc1)NO` [Ricolinostat], the “inhibition of class IIa HDACs” value with class IIa HDACs is “slightly inhibit”. In addition, the “inhibition of class I HDACs in HDAC panel” value in the assay on class I HDACs is given as “slightly inhibit”. Besides, in assay [1], the “effect on Histone H3 acetylation” value is given as “increase the acetylation of histone H3”. Besides, the “effect on tubulin acetylation” value in assay [2] is “significantly and concentration-dependently elevates tubulin acetylation”.
